pIC50: −log10 of the molar value.

In one assay the target is T1, Cannabinoid-1 receptor (CB1R) (Rattus norvegicus, UniProt P20272).
T1 construct: The tissue obtained from the brain of SD rats was homogenized; from tissue; host or cells: brain of SD rats (membrane pellet of the homogenate)
T1 sequence (P20272 whole entry): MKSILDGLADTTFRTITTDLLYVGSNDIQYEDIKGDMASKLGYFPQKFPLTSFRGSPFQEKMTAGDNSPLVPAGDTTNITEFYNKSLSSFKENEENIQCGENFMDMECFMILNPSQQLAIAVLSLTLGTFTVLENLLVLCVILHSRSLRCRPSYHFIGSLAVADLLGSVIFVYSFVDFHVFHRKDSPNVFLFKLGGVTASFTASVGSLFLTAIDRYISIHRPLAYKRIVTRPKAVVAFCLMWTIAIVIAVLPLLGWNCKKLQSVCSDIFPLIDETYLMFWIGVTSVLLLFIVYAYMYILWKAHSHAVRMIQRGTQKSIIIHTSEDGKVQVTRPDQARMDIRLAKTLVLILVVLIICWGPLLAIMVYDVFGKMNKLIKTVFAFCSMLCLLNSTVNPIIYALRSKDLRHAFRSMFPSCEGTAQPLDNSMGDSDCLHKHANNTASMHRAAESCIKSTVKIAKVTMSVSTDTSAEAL
In words: Cannabinoid-1 receptor (CB1R) binding affinity assay ([3H]CP-55940, rat CB-1 receptor binding protocol). To be noted: IC50(nM), brain tissue of SD rats, [3H]CP-55940, 30° C. 60 min. The protocol: The tissue obtained from the brain of SD rats was homogenized with a Dounce homogenate system in TME (50 mM Tris, 3 mM MgCl2 and 1 mM EDTA, pH 7.4) at 4° C., and the homogenate was centrifuged at 48,000 g for 30 min. at 4° C. The pellet was resuspended in 5 ml of TME and the suspension was divided into aliquots and stored at −70° C. until its use in the following assay.
The tissue concentrations were determined by Bradford protein analysis, and 148 μl of brain tissue of the required concentration was added to the plate. The plate was covered and placed in a 30° C. incubator for 60 min, and then transformed on GF/B filtermat pretreated in polyethylenimine (PEI) using a cell harvester. Each filter was washed five times and dried at 60° C. for 1 hr. Then, the degree of radioactivity retained by the filter was measured using Wallac Microbeta™ (PerkinElmer Life Sciences, Inc., Massachusetts, U.S.A.) and the activity of the compound for inhibiting CB1 receptor was determined therefrom.
Regarding `CCCCc1cnc(-c2nn(-c3ccc(Cl)cc3Cl)c(-c3ccc(Cl)cc3)c2C)o1` [Example 639, 5-butyl-2-(5-(4-chlorophenyl)-1-(2,4-dichlorophenyl)-4-methyl-1H-pyrazol-3-yl)oxazole], the IC50 was determined as 57.2 nM.

In turn, `CCCCC(C)c1nnc(-c2nn(-c3ccccc3Cl)c(-c3ccc(Cl)cc3)c2C)s1` (stereo not drawn) [Example 411, 2-(1-(2-chlorophenyl)-5-(4-chlorophenyl)-4-methyl-1H-pyrazol-3-yl)-5-(hexan-2-yl)-1,3,4-thiadiazole] came in with an IC50 of 13.5 nM.

For the compound `Cc1c(-c2nnc(C(C)(C)OCc3cccc(Cl)c3)o2)nn(-c2ccc(Cl)cc2Cl)c1-c1ccc(Cl)cc1` [Example 249, 2-(2-(3-Chlorobenzyloxy)propan-2-yl)-5-(5-(4-chlorophenyl)-1-(2,4-dichlorophenyl)-4-methyl-1H-pyrazol-3-yl)-1,3,4-oxadiazole], the IC50 was determined as 11.1 nM.

`Cc1c(-c2nc3c(o2)CCCC3)nn(-c2ccc(Cl)cc2Cl)c1-c1ccc(Cl)cc1` [Example 642, 2-(5-(4-chlorophenyl)-1-(2,4-dichlorophenyl)-4-methyl-1H-pyrazol-3-yl)-4,5,6,7-tetrahydrobenzo[d]oxazole] registered an IC50 of 44.2 nM.

The same assay, now with this note: brain tissue of SD rats, [3H]CP-55940, 30° C. 60 min; read-out: IC50.
In the case of `Cc1c(-c2nc(C3CCCCC3)n(C)n2)nn(-c2ccc(Cl)cc2Cl)c1-c1ccc(Cl)cc1` [Example 624, 3-(5-(4-chlorophenyl)-1-(2,4-dichlorophenyl)-4-methyl-1H-pyrazol-3-yl)-5-cyclohexyl-1-methyl-1H-1,2,4-triazole], the pIC50 was 6.41.

Consider `Cc1c(-c2nnn(CC3CCCCC3)n2)nn(-c2ccc(Cl)cc2Cl)c1-c1ccc(Cl)cc1` [Example 590, 5-(5-(4-Chlorophenyl)-1-(2,4-dichlorophenyl)-4-methyl-1H-pyrazol-3-yl)-2-(cyclohexylmethyl)-2H-tetrazole], for which the pIC50 is 7.07.

For `C=Cc1c(-c2nnc(C(C)(C)C)o2)nn(-c2ccc(Cl)cc2Cl)c1-c1ccc(Cl)cc1` [Example 227, 2-tert-butyl-5-(5-(4-chlorophenyl)-1-(2,4-dichlorophenyl)-4-vinyl-1H-pyrazol-3-yl)-1,3,4-oxadiazole], the pIC50 was 7.77.

For the compound `CCc1c(-c2nnc(C(C)(C)C)s2)nn(-c2ccc(Cl)cc2Cl)c1-c1ccc(Cl)cc1` [Example 389, 2-tert-butyl-5-(5-(4-chlorophenyl)-1-(2,4-dichlorophenyl)-4-ethyl-1H-pyrazol-3-yl)-1,3,4-thiadiazole], the pIC50 is 7.95.

In the case of `CCc1c(-c2nnc(C3CCC3)s2)nn(-c2ccc(Cl)cc2Cl)c1-c1ccc(Cl)cc1` [Example 395, 2-(5-(4-chlorophenyl)-1-(2,4-dichlorophenyl)-4-ethyl-1H-pyrazol-3-yl)-5-cyclobutyl-1,3,4-thiadiazole], the pIC50 is 7.66.

For `CCc1c(-c2nnc(C3(C(F)(F)F)CC3)s2)nn(-c2ccc(Cl)cc2Cl)c1-c1ccc(Cl)cc1` [Example 500, 2-(5-(4-chlorophenyl)-1-(2,4-dichlorophenyl)-4-ethyl-1H-pyrazol-3-yl)-5-(1-(trifluoromethyl)cyclopropyl)-1,3,4-thiadiazole], the pIC50 was 7.63.

Take `Cc1c(-c2nnnn2C2CCCC2)nn(-c2ccc(Cl)cc2Cl)c1-c1ccc(Br)cc1` [Example 606, 5-(5-(4-bromophenyl)-1-(2,4-dichlorophenyl)-4-methyl-1H-pyrazol-3-yl)-1-cyclopentyl-1H-tetrazole]: the pIC50 was 7.94.

In the case of `CC(C)(C)c1nnc(-c2nn(-c3ccc(Cl)cc3Cl)c(-c3ccc(Cl)cc3)c2Cn2cncn2)o1` [Example 296, 2-(4-((1H-1,2,4-triazol-1-yl)methyl)-5-(4-chlorophenyl)-1-(2,4-dichlorophenyl)-1H-pyrazol-3-yl)-5-tert-butyl-1,3,4-oxadiazole], the pIC50 is 8.63.

Turning to `Cc1c(-c2nnc(C3(c4ccccc4)CC3)s2)nn(-c2ccc(Cl)cc2Cl)c1-c1ccc(Cl)cc1` [Example 487, 2-(5-(4-chlorophenyl)-1-(2,4-dichlorophenyl)-4-methyl-1H-pyrazol-3-yl)-5-(1-phenylcyclopropyl)-1,3,4-thiadiazole], the pIC50 is 8.02.

For the compound `Cc1c(-c2nnc(C(C)(C)C3CCCCC3)o2)nn(-c2ccc(Cl)cc2Cl)c1-c1ccc(Cl)cc1` [Example 64, 2-(5-(4-chlorophenyl)-1-(2,4-dichlorophenyl)-4-methyl-1H-pyrazol-3-yl)-5-(2-cyclohexylpropan-2-yl)-1,3,4-oxadiazole], the pIC50 was 7.82.

For the compound `Cc1c(-c2nnc(C3(c4ccc(Cl)cc4)CC3)o2)nn(-c2c(Cl)cccc2Cl)c1-c1ccc(Cl)cc1` [Example 161, 2-(5-(4-chlorophenyl)-1-(2,6-dichlorophenyl)-4-methyl-1H-pyrazol-3-yl)-5-(1-(4-chlorophenyl)cyclopropyl)-1,3,4-oxadiazole], the pIC50 was 7.28.

Regarding `Clc1ccc(-c2c(C3CC3)c(-c3nnc(C4CCCCC4)s3)nn2-c2ccc(Cl)cc2Cl)cc1` [Example 440, 2-(5-(4-chlorophenyl)-4-cyclopropyl-1-(2,4-dichlorophenyl)-1H-pyrazol-3-yl)-5-cyclohexyl-1,3,4-thiadiazole], the pIC50 is 7.96.

Regarding `Cc1c(-c2nnc(C(C)(C)C)s2)nn(-c2ccccc2Cl)c1-c1ccc(Br)cc1` [Example 425, 2-(5-(4-bromophenyl)-1-(2-chlorophenyl)-4-methyl-1H-pyrazol-3-yl)-5-tert-butyl-1,3,4-thiadiazole], the pIC50 is 7.95.

In the case of `CCCCCCn1nnnc1-c1nn(-c2ccc(Cl)cc2Cl)c(-c2ccc(Cl)cc2)c1C` [Example 603, 5-(5-(4-Chlorophenyl)-1-(2,4-dichlorophenyl)-4-methyl-1H-pyrazol-3-yl)-1-hexyl-1H-tetrazole], the pIC50 is 7.30.

In the case of `CC(=O)SCc1c(-c2nnc(C(C)(C)C)o2)nn(-c2ccc(Cl)cc2Cl)c1-c1ccc(Cl)cc1` [Example 308, S-(3-(5-tert-butyl-1,3,4-oxadiazol-2-yl)-5-(4-chlorophenyl)-1-(2,4-dichlorophenyl)-1H-pyrazol-4-yl)methyl ethanethioate], the pIC50 is 7.68.

With `Cc1c(-c2nnc(-c3cccs3)s2)nn(-c2ccc(Cl)cc2Cl)c1-c1ccc(Cl)cc1` [Example 351, 2-(5-(4-chlorophenyl)-1-(2,4-dichlorophenyl)-4-methyl-1H-pyrazol-3-yl)-5-(thiophen-2-yl)-1,3,4-thiadiazole], the pIC50 is 7.20.

With `COc1ccc(-c2c(C)c(-c3nnc(C4(c5ccc(Cl)cc5)CC4)o3)nn2-c2ccc(Cl)cc2Cl)cc1` [Example 138, 2-(1-(4-chlorophenyl)cyclopropyl)-5-(1-(2,4-dichlorophenyl)-5-(4-methoxyphenyl)-4-methyl-1H-pyrazol-3-yl)-1,3,4-oxadiazole], the pIC50 is 8.00.

Consider `CCC(C)c1nnc(-c2nn(-c3ccc(Cl)cc3Cl)c(-c3ccccc3)c2C)s1` (stereo not drawn) [Example 422, 2-sec-butyl-5-(1-(2,4-dichlorophenyl)-4-methyl-5-phenyl-1H-pyrazol-3-yl)-1,3,4-thiadiazole], for which the pIC50 was 6.65.

Turning to `Cc1c(-c2nnc(C3CCCO3)o2)nn(-c2ccc(Cl)cc2Cl)c1-c1ccc(Cl)cc1` (stereo not drawn) [Example 25, 2-(5-(4-Chlorophenyl)-1-(2,4-dichlorophenyl)-4-methyl-1H-pyrazol-3-yl)-5-(tetrahydrofuran-2-yl)-1,3,4-oxadiazole], the pIC50 was 7.22.

As for `Cc1c(-c2n[nH]c(C3CCC3)n2)nn(-c2ccc(Cl)cc2Cl)c1-c1ccc(Cl)cc1` [Example 621, 3-(5-(4-chlorophenyl)-1-(2,4-dichlorophenyl)-4-methyl-1H-pyrazol-3-yl)-5-cyclobutyl-1H-1,2,4-triazole], the pIC50 was 6.46.

For `Clc1ccc(-c2c(Br)c(-c3nnc(C4CCCCC4)o3)nn2-c2ccc(Cl)cc2Cl)cc1` [Example 341, 2-(4-bromo-5-(4-chlorophenyl)-1-(2,4-dichlorophenyl)-1H-pyrazol-3-yl)-5-cyclohexyl-1,3,4-oxadiazole], the pIC50 was 7.09.

As to `Cc1c(-c2nnc(CC3CC3)s2)nn(-c2ccc(Cl)cc2Cl)c1-c1ccc(Cl)cc1` [Example 370, 2-(5-(4-Chlorophenyl)-1-(2,4-dichlorophenyl)-4-methyl-1H-pyrazol-3-yl)-5-(cyclopropylmethyl)-1,3,4-thiadiazole], the pIC50 is 7.17.

As for `C=Cc1c(-c2nnc(C3(c4ccc(Cl)cc4)CC3)o2)nn(-c2ccc(Cl)cc2Cl)c1-c1ccc(Cl)cc1` [Example 229, 2-(5-(4-chlorophenyl)-1-(2,4-dichlorophenyl)-4-vinyl-1H-pyrazol-3-yl)-5-(1-(4-chlorophenyl)cyclopropyl)-1,3,4-oxadiazole], the pIC50 is 7.85.

For `CCc1c(-c2nnc(C3(C)CC3)o2)nn(-c2ccc(Cl)cc2Cl)c1-c1ccc(Cl)cc1` [Example 283, 2-(5-(4-chlorophenyl)-1-(2,4-dichlorophenyl)-4-ethyl-1H-pyrazol-3-yl)-5-(1-methylcyclopropyl)-1,3,4-oxadiazole], the pIC50 was 7.96.

`CCC(C)(C)c1nnc(-c2nn(-c3ccc(Cl)cc3)c(-c3ccc(Cl)cc3)c2C)s1` [Example 448, 2-(1,5-bis(4-chlorophenyl)-4-methyl-1H-pyrazol-3-yl)-5-tert-pentyl-1,3,4-thiadiazole]: the pIC50 was 6.70.

As to `Cc1c(-c2nnc(C3(c4ccccn4)CC3)o2)nn(-c2ccc(Cl)cc2Cl)c1-c1ccc(Cl)cc1` [Example 269, 2-(5-(4-chlorophenyl)-1-(2,4-dichlorophenyl)-4-methyl-1H-pyrazol-3-yl)-5-(1-(pyridin-2-yl)cyclopropyl)-1,3,4-oxadiazole], the pIC50 is 7.70.

The values above are taken from patent US7875647B2, “Heteroaryl-pyrazole derivatives as cannabinoid CB1 receptor antagonists” (Green Cross Corporation, priority 2006, dated 2011).
